Results: patent publication US10206904B2, “Licofelone derivatives and methods of use” (The Board of Regents of the University of Oklahoma, priority 2015, dated 2019)
Where “and” joins values, the source holds several entries; their conditions need not be identical. Identical values can stand only once. Like-named read-outs stand apart in the source and are kept apart here.

System: AOM-induced colon tumors
Conditions: for Adenoma Incidence (% Rats with Adenomas) / Adenoma Incidence (rats with adenomas/rats) / Adenoma Multiplicity (Mean ± SEM) / Invasive AdCA Incidence (% Rats with Invasive AdCa) / Invasive AdCA Incidence (rats with Invasive AdCa/rats) / Invasive AdCA Multiplicity (Mean ± SEM) / Multiplicity Total CRC Tumors (Adenoma + AdCa) (Mean ± SEM) / Non-Inv AdCa Incidence (% Rats with Non-Inv AdCa) / Non-Inv AdCa Incidence (rats with Non-Inv AdCa/rats) / Non-Inv AdCa Multiplicity (Mean ± SEM) / Total CRC Tumors (Adenoma + AdCa) incidence (% rats) / Total CRC Tumors (Adenoma + AdCa) incidence (rats with tumors/rats) / % AdCA Inhibition (incidence) / % AdCA Inhibition (multiplicity) / % Inv AdCA Inhibition (incidence) / % Inv AdCA Inhibition (multiplicity) / % Non-Inv AdCA Inhibition (incidence) / % Non-Inv AdCA Inhibition (multiplicity) / % adenoma Inhibition (incidence) / % adenoma Inhibition (multiplicity) / % of CRC Tumor Inhibition (incidence) / % of CRC Tumor Inhibition (multiplicity) / AdCA Incidence (% Rats with AdCa) / AdCA Incidence (rats with AdCa/rats) / AdCA Multiplicity (Mean ± SEM): AOM-treated male F344 rats
Method: After 42 weeks of experimental diet feeding and total 52 weeks of experimental duration, the rats were necropsied. After necropsy of the rats, the colonic tumors were analyzed histologically. Histopathological evaluation colonic tumor has been completed by two pathologists independently. Colonic tumors were histopathologically classified to adenomas or adenocarcinomas either exophytic (non-invasive) or endophytic (invasive).
Colonic tumors (CTs) were induced by colon specific carcinogen, azoxymethane (AOM) (15 mg/kg by wt, once weekly for 2 weeks) in F344 rats at 8 weeks' age. […] Rats were killed by CO2 asphyxiation 36 weeks after second AOM and the colons were removed, rinsed in PBS, opened longitudinally, and flattened on a filter paper. The location and size of each tumor were noted. Tumors were removed, snap frozen, or fixed in 10% buffered formalin for 24 hours and transferred to 80% ethanol for histopathological analysis. The number and type of colon tumors (adenoma and adenocarcinoma) were analyzed histologically blinded to treatment groups and compared with control diet fed rat colonic tumors.

[1] = 800 ppm in diet, saline treated male F344 rats

SMILES: CC1(C)Cc2c(-c3ccccc3)c(-c3ccc(Cl)cc3)c(CC(=O)NCC(=O)O)n2C1 [LFA-9, licofelone-glycine]
- Adenoma Incidence (% Rats with Adenomas) (200 ppm in diet): (30.0%)
- Adenoma Incidence (rats with adenomas/rats) (200 ppm in diet): 9/30
- Adenoma Multiplicity (Mean ± SEM) (200 ppm in diet): 0.50±0.07 Tumors/Rat
- Invasive AdCA Incidence (% Rats with Invasive AdCa) (200 ppm in diet): (6.66%)
- Invasive AdCA Incidence (rats with Invasive AdCa/rats) (200 ppm in diet): 2/30
- Invasive AdCA Multiplicity (Mean ± SEM) (200 ppm in diet): 0.07 ± 0.02 Tumors/Rat
- Multiplicity Total CRC Tumors (Adenoma + AdCa) (Mean ± SEM) (200 ppm in diet): 0.87 ± 0.12 Tumors/Rat
- Non-Inv AdCa Incidence (% Rats with Non-Inv AdCa) (200 ppm in diet): (26.7%)
- Non-Inv AdCa Incidence (rats with Non-Inv AdCa/rats) (200 ppm in diet): 8/30
- Non-Inv AdCa Multiplicity (Mean ± SEM) (200 ppm in diet): 0.30 ± 0.05 Tumors/Rat
- Total CRC Tumors (Adenoma + AdCa) incidence (% rats) (200 ppm in diet): (46.6%)
- Total CRC Tumors (Adenoma + AdCa) incidence (rats with tumors/rats) (200 ppm in diet): 14/30
- % AdCA Inhibition (incidence) (400 ppm in diet): 67.9%
- % AdCA Inhibition (multiplicity) (400 ppm in diet): 81.3%
- % Inv AdCA Inhibition (incidence) (400 ppm in diet): 77.4%%
- % Inv AdCA Inhibition (multiplicity) (400 ppm in diet): 80.0%
- % Non-Inv AdCA Inhibition (incidence) (400 ppm in diet): 72.3%
- % Non-Inv AdCA Inhibition (multiplicity) (400 ppm in diet): 82.0%
- % adenoma Inhibition (incidence) (400 ppm in diet): 53%
- % adenoma Inhibition (multiplicity) (400 ppm in diet): 46.9%
- % of CRC Tumor Inhibition (incidence) (400 ppm in diet): 55.5% and 55.0%
- % of CRC Tumor Inhibition (multiplicity) (400 ppm in diet): 69.1% and 69.08%
- AdCA Incidence (% Rats with AdCa) (400 ppm in diet): (26.7%)
- AdCA Incidence (rats with AdCa/rats) (400 ppm in diet): 8/30
- AdCA Multiplicity (Mean ± SEM) (400 ppm in diet): 0.30±0.07 Tumors/Rat
- Adenoma Incidence (% Rats with Adenomas) (400 ppm in diet): (30.0%)
- Adenoma Incidence (rats with adenomas/rats) (400 ppm in diet): 9/30
- Adenoma Multiplicity (Mean ± SEM) (400 ppm in diet): 0.43±0.06 Tumors/Rat
- Invasive AdCA Incidence (% Rats with Invasive AdCa) (400 ppm in diet): (10.0%)
- Invasive AdCA Incidence (rats with Invasive AdCa/rats) (400 ppm in diet): 3/30
- Invasive AdCA Multiplicity (Mean ± SEM) (400 ppm in diet): 0.10 ± 0.02 Tumors/Rat
- Multiplicity Total CRC Tumors (Adenoma + AdCa) (Mean ± SEM) (400 ppm in diet): 0.73 ± 0.10 Tumors/Rat
- Non-Inv AdCa Incidence (% Rats with Non-Inv AdCa) (400 ppm in diet): (20.0%)
- Non-Inv AdCa Incidence (rats with Non-Inv AdCa/rats) (400 ppm in diet): 6/30
- Non-Inv AdCa Multiplicity (Mean ± SEM) (400 ppm in diet): 0.20 ± 0.04 Tumors/Rat
- Total CRC Tumors (Adenoma + AdCa) incidence (% rats) (400 ppm in diet): (40.0%)
- Total CRC Tumors (Adenoma + AdCa) incidence (rats with tumors/rats) (400 ppm in diet): 12/30
- % AdCA Inhibition (incidence) (800 ppm in diet): 76%
- % AdCA Inhibition (multiplicity) (800 ppm in diet): 85.7%
- % Inv AdCA Inhibition (incidence) (800 ppm in diet): 92.5%
- % Inv AdCA Inhibition (multiplicity) (800 ppm in diet): 94.0%
- % Non-Inv AdCA Inhibition (incidence) (800 ppm in diet): 72.3%
- % Non-Inv AdCA Inhibition (multiplicity) (800 ppm in diet): 82.0%
- % adenoma Inhibition (incidence) (800 ppm in diet): 58.2%
- % adenoma Inhibition (multiplicity) (800 ppm in diet): 42%
- % of CRC Tumor Inhibition (incidence) (800 ppm in diet): 47.5%
- % of CRC Tumor Inhibition (multiplicity) (800 ppm in diet): 71.1% and 71.07%
- AdCA Incidence (% Rats with AdCa) (800 ppm in diet): (20.0%)
- AdCA Incidence (rats with AdCa/rats) (800 ppm in diet): 6/30
- AdCA Multiplicity (Mean ± SEM) (800 ppm in diet): 0.23±0.05 Tumors/Rat
- Adenoma Incidence (% Rats with Adenomas) (800 ppm in diet): (26.7%)
- Adenoma Incidence (rats with adenomas/rats) (800 ppm in diet): 8/30
- Adenoma Multiplicity (Mean ± SEM) (800 ppm in diet): 0.47±0.06 Tumors/Rat
- Invasive AdCA Incidence (% Rats with Invasive AdCa) (800 ppm in diet): (3.33%)
- Invasive AdCA Incidence (rats with Invasive AdCa/rats) (800 ppm in diet): 1/30
- Invasive AdCA Multiplicity (Mean ± SEM) (800 ppm in diet): 0.03 ± 0.01 Tumors/Rat
- Multiplicity Total CRC Tumors (Adenoma + AdCa) (Mean ± SEM) (800 ppm in diet): 0.70 ± 0.10 Tumors/Rat
- Non-Inv AdCa Incidence (% Rats with Non-Inv AdCa) (800 ppm in diet): (20.0%)
- Non-Inv AdCa Incidence (rats with Non-Inv AdCa/rats) (800 ppm in diet): 6/30
- Non-Inv AdCa Multiplicity (Mean ± SEM) (800 ppm in diet): 0.20 ± 0.04 Tumors/Rat
- Total CRC Tumors (Adenoma + AdCa) incidence (% rats) (800 ppm in diet): (46.6%)
- Total CRC Tumors (Adenoma + AdCa) incidence (rats with tumors/rats) (800 ppm in diet): 14/30
- AdCA Incidence [1]: 0
- AdCA Multiplicity [1]: 0 Tumors/Rat
- Adenoma Incidence [1]: 0
- Adenoma Multiplicity [1]: 0 Tumors/Rat
- Invasive AdCA Incidence [1]: 0
- Invasive AdCA Multiplicity [1]: 0 Tumors/Rat
- Multiplicity Total CRC Tumors (Adenoma + AdCa) [1]: 0 Tumors/Rat
- Non-Inv AdCa Incidence [1]: 0
- Non-Inv AdCa Multiplicity [1]: 0 Tumors/Rat
- Total CRC Tumors (Adenoma + AdCa) incidence [1]: 0
- body weight retardation and observable toxicities (chronic administration up to 800 ppm in diet, F344 rats): did not show any significant body weight retardation and any observable toxicities
